Measurements published in US20050203155A1, “Imidazole compounds and human cellular proteins casein kinase I alpha, delta and epsilon as targets for medical intervention against Hepatitis C Virus infections” (priority 2002, published 2005).

Key:
HCV RNA = assay: Metabolic labelling of HCV RNA in HCV replicon cell line 5-15 in the presence of actinomycin D; type: cell-based, Hepatitis C Virus; conditions: 50 μM, replicon cell line 5-15, actinomycin D, overnight [33P]-orthophosphate labelling
Description: 1×10^6 Huh7-5-15 replicon cells and Huh-pcDNA3 cells were seeded into 10 cm culture plates and grown as described. After 24 hours cells were washed with phosphate-free medium and incubated in phosphate-free medium supplemented with 10% phosphate-free calf serum. Actinomycin D at a final concentration of 5 μg/ml was added to the cells together with the tested compounds at final concentrations of 10 and 50 μM. After 30 minutes of incubation cells were supplemented with 200 μCi ^33P-orthophosphate per dish and incubated over night. After cell lysis, RNA isolation was performed using the RNeasy mini kit (QIAGEN) according to recommendations given by the manufacturer. Northern blot was carried out according to standard procedures and autoradiography of the membrane was performed.

HCV replicons = assay: Luciferase reporter assay of HCV replicons in the Huh-5-2 cell line; type: cell-based, Hepatitis C Virus; conditions: for % activity (luciferase, replicon RNA levels): 3 days, Huh-5-2, percentage of DMSO controls
Excerpt: (§1) The Huh-5-2 cell line carries the persistant bicistronic replicon I389luc-ubi-neo/NS3-3′/5.1 that expresses a firefly luciferase-ubiquitin-neomycin phosphotransferase fusion protein under the control of the HCV 5′ UTR and the NS3-5B HCV polyprotein that harbors the cell culture adaptive mutation of NK5.1. (J. Virol. 75:4614-4624, 2001) and is driven by the EMCV-IRES. Autonomously replicating HCV RNA replicons are detectable by Northern blot or via expression of the luciferase part of the fusion protein in a luciferase reporter assay. For luciferase reporter assays, Huh-5-2 cells were seeded at 2500 cells per well in 96 well plates in medium without G418. […] On day 3 after addition of compounds, Alamar Blue™ solution (Serotec), which contains a redox indicator, was added to the cells to measure cell proliferation and compound cytotoxicity. After incubation for 3-4 hours, fluorescence was monitored at the wavelengths of 560 nm and 590 nm with a Wallac 1420 multilabel counter. For the luciferase assay, the cells were subsequently washed twice with PBS without sodium hydrogen carbonate (Life Technologies GmbH, Karlsruhe), and luciferase activity was determined with the LucLite Plus Assay Kit (Packard Bioscience B.V.) according to the manufacturer's instructions in a Wallac 1450 Microbeta Luminescence counter.

CKI isoforms α, δ and ε = assay: In-vitro kinase assay, GST-NS5A phosphorylation by Mono Q Peak I fractions of Huh-7 cells; type: biochemical, human; conditions: CKI-enriched partially purified Mono Q fraction of Huh-7 cells, FIG. 6A
Description: Confluent 15 cm dishes of Huh-7 cells were lysed in 500 μl lysis buffer per dish containing 20 mM Tris (tris-(hydroxymethyl)-amino methane) pH 8.0, 10 mM NaF (sodium fluoride), 2 mM MgCl2 (Magnesium chloride), 1 mM DTT (dithiothreitol), 2 mM EGTA (ethylene glycol-bis(β-amino-ethyl ether)-N,N,N′,N′-tetraacetic acid), 1 mM PMSF (phenylmethylsulfonyl fluoride), 0.1% NP40 (Nonidet P-40), 10 μg/ml Aprotinin, 10 μg/ml Leupeptin, and 1 mM orthovanadate. Lysates were cleared by centrifugation (20 min, 13000 rpm, 4° C.) and filtered using a 0.45 μm syringe filter (Nalgene). This cleared material was further purified by a 1 ml Mono Q column (Amersham Biosciences) equilibrated with lysis buffer without additives. After washing the column, bound proteins were eluted with lysis buffer containing 1 M NaCl in a step gradient modus. Eluted proteins were collected in 1 ml fractions, systematically pooled, dialysed against 50 mM Tris pH 7.5, 10 mM NaF, 1 mM DTT, 0.01% Triton X-100 and stored at −80° C. Chromatography runs were performed on a AKTA explorer 10 system (Amersham Biosciences). Samples were subsequently assayed by in-vitro kinase assays and western blot analysis.
GST-NS5A immobilized to Glutathione Sepharose 4B beads (Amersham Biosciences) was washed twice with 500 μl kinase buffer (50 mM Tris pH 7.5, 10 mM MgCl2, 0.5 mM DTT). […]

Huh-5-2 replicon cells = assay: Alamar Blue toxicity assay in Huh-5-2 replicon cells; type: cell-based, human; conditions: for % of cell viability: 3 days, Huh-5-2, percentage of DMSO controls
Excerpt: as §1

C[S+]([O-])c1ccc(-c2nc(-c3cccc(I)c3)c(-c3ccncc3)[nH]2)cc1 (centres unmarked) [Compound 39, 4-[5-(3-Iodo-phenyl)-2-(4-methanesulfinyl-phenyl)-3H-imidazole-4-yl]-pyridine]
synthesis of HCV RNA (HCV RNA): reduced | % activity (luciferase, replicon RNA levels) (HCV replicons; 1.25 μM): 117% | % activity (luciferase, replicon RNA levels) (HCV replicons; 2.5 μM): 104% | % activity (luciferase, replicon RNA levels) (HCV replicons; 5 μM): 89% | % activity (luciferase, replicon RNA levels) (HCV replicons; 10 μM): 28% | % activity (luciferase, replicon RNA levels) (HCV replicons; 20 μM): 0% | IC50 (HCV replicons; Hepatitis C virus, 72 h, Huh-5-2, 3 days, read-out: IC50, replication of subgenomic HCV replicon RNA in the luciferase reporter assay): 9 µM | inhibitory effect on NS5A-phosphorylating kinase activity present in the Peak I fractions (CKI isoforms α, δ and ε): potent inhibitor | % of cell viability (Huh-5-2 replicon cells; 1.25 μM): 108% | % of cell viability (Huh-5-2 replicon cells; 2.5 μM): 105% | % of cell viability (Huh-5-2 replicon cells; 5 μM): 109% | % of cell viability (Huh-5-2 replicon cells; 10 μM): 114% | % of cell viability (Huh-5-2 replicon cells; 20 μM): 72% | Toxicity (Huh-5-2 replicon cells; up to a concentration of 10 μM, Huh-5-2): low
